Laboratory results taken from publication PMC10683482, “Offsetting Low-Affinity Carbohydrate Binding with Covalency to Engage Sugar-Specific Proteins for Tumor-Immune Proximity Induction” (ACS Central Science, 2023).

What was measured:
anti-23F antibody = experiment: Mass spectrometry study of anti-23F labelling; format: binding, human; conditions: 10 µM cARM, 2.7 µM anti-23F, 45 hours
Experimental: To further confirm selectivity, an MS study was conducted to determine the site of labeling (Figures S10 and S11). […] No other labeling site was detected on the light chain; however, the lability of the SO2F-serine/tyrosine linkage to MS sample preparation protocols likely limited complete labeling site coverage. […] Due to the low labeling efficiency of rhamnose-AI-cARM, no labeling site could be identified. […] Determining the selectivity for antirhamnose antibodies in the presence of off-target cell surface proteins will be the focus of future in vivo studies.
Mass Spectrometry Study – Anti-23F Labelling
Anti-23F (2.7 µM) was incubated with 10 µM of Biotin-AI-cAR M 4 or Biotin-SO2F-cAR M 12, or PBS (antibody only) for 45 hours before MS analysis. Analysis was completed by Bioinformatics Solutions
Inc. Briefly, for intact protein analysis each sample was treated with PNGase F to remove glycans followed by LC-MS analysis. To determine site of labelling, each sample was digested with tryspin, chymostrypsin, and pepsin then analyzed by LC-MS/MS on a timsTOF Pro. Peptide spectra were mapped to a known antibody sequence (anti -23F antibody, Creative Biolabs - PABX-173). No labelling was identified with acyl imidazole containing cARM 4. […]
approxima tely 30% labelling post MS protocol (Figure S11)
Figure S10. Sample analysis of peptide mapping of anti-23F heavy chain. Modification with cARM 12 is […]
(1 picture or pasted object on this page, not shown here)

Hek-PSMA cells = experiment: Microscopy of induced antibody recruitment (opsonization); format: cell-based, human; conditions: 8 μM compound with 4 μM anti-23F 24 h
Experimental: To test the antitumor immune function of rhamnose SO2F cARMs, GU was again incorporated as a TBD for PSMA targeting (compound 14, Figure 5A, Scheme S5). The ability to selectively induce opsonization of model prostate cancer cells via monoclonal anti-23F was first evaluated using fluorescence microscopy (Figure 5B, Figure S12). Compound 14 (8 μM) was incubated with anti-23F (4 μM) for 24 h followed by addition to PSMA expressing Hek-PSMA cells. Following a 20 min incubation, fluorescent secondary antibody was added. […] The addition of rhamnose competitor during the antibody labeling reaction again inhibited covalent antibody engagement and opsonization of target cells (Figure S12).
Figure 5 Functional analysis of PSMA-targeting SuFEx cARMs. A. Chemical structure of the functional GU cARM molecule used for PSMA targeting. B. Confocal (top) and fluorescent imaging (bottom) of Hek-PSMA cells treated with anti-23F only or anti-23F antibody pre-incubated with rhamnose-SO2F-cARM 14. C. Jurkat activation assay evaluation of 14 directly in polyclonal human IgG. Each cARM/ARM (9 μM) was incubated with polyclonal human IgG (230 μM) overnight and then added to pre-plated Hek-P cells (50,000 cells). […] Activation of jurkat cells was determined by measuring luciferase expression with a BioGlo assay kit. […] ADCP was determined via flow cytometry. […]

C[C@@H]1O[C@@H](OCc2cn(CCc3cn(C(=O)OCCOCCOCCOCCOCCOCCOCCOCCNC(=O)CCCC[C@@H]4SC[C@@H]5NC(=O)N[C@@H]54)cn3)nn2)[C@H](O)[C@H](O)[C@H]1O [compound 4]
site of labelling (LC-MS/MS peptide mapping) (anti-23F antibody): No labelling

C[C@@H]1O[C@@H](OCc2cn(CCCNC(=O)OCCNC(=O)CCCCCNC(=O)CCCCCNC(=O)CCCCCNC(=O)NCCCC[C@H](NC(=O)N[C@@H](CCC(=O)O)C(=O)O)C(=O)O)nn2)[C@H](O)[C@H](O)[C@H]1O [compound 11]
opsonization of target cells (Hek-PSMA cells): failed to opsonize target cells
